Experimental data taken from patent US7666390B2, “DTPA derivatives and metal complexes thereof, and radiation source and contrast agent including the metal complexes” (Korea Atomic Energy Research Institute, priority 2005, dated 2010).

Experiments:
[1] = Urinary excretion of the radioactive metal (^166Ho) complex in animals, gamma camera imaging and renal time activity curves; assay type: in vivo, rabbits (New Zealand White); details: male rabbits; for half time of the maximum activity (T1/2) / time to maximum activity (Tmax): ear vein injection 3.0±0.2 mCi, from ROI time activity curve
Method: Male rabbits (New Zealand White) were anesthetized by intramuscular injection of 25 mg/kg of Ketamine (Yuhan Corporation, Korea) and 6 mg/kg of Rompun (Bayer Korea), and then received through the ear vein 3.0±0.2 mCi of ^166Ho-DTPA-bis(5-amido-2,4,6-triiodoisophthalic acid). The behavior of the drug was monitored for 30 min by scanning the whole body of rabbits using a gamma camera (SIMENSE, Germany). The gamma camera was equipped with a parallel hole collimator, and was set at an energy level of 81 keV. At this energy level, images were obtained using a medium-energy collimator with a window width of 20%.
In addition, regions of interest (ROIs) were created around the right and left kidneys to produce time activity curves. From the time activity curves, time to maximum activity (Tmax) and half time of the maximum activity (T1/2) for each kidney were calculated using a computer system (SINCTRON IV, Germany), and the results are given in FIG. 6.

[2] = Urinary excretion of the radioactive metal (^99mTc) complex in animals, gamma camera imaging and renal time activity curves; assay type: in vivo, rabbits (New Zealand White); details: male rabbits; for time to achieve maximum activity (Tmax) / time to eliminate half of the maximum activity (T1/2): ear vein injection 1.0±0.1 mCi, from ROI time activity curve
Method: Male rabbits (New Zealand White) were anesthetized by the intramuscular injection of 25 mg/kg of Ketamine (Yuhan Corporation, Korea) and 6 mg/kg of Rompun (Bayer Korea), and then received through the ear vein 1.0±0.1 mCi of the ^99mTc-DTPA derivative complex, ^99mTc-DTPA-mono(3-amido-2,4,6-triiodobenzoic acid). The behavior of the drug was monitored for 30 min by scanning the whole body of rabbits using a gamma camera (SIMENSE, Germany). The gamma camera was equipped with a parallel hole collimator, and was set at an energy level of 140 keV to obtain images.
In addition, regions of interest (ROIs) were created around the right and left kidneys to produce time activity curves. From the time activity curves, time to achieve maximum activity (Tmax) and time to eliminate half of the maximum activity (T1/2) for each kidney were calculated using a computer system (SINCTRON IV, Germany), and the results are given in FIG. 4.

Substance: ^166Ho-DTPA-bis(5-amido-2,4,6-triiodoisophthalic acid)
- radioactivity in the kidneys ([1]; 30 min after injection): decrease to a level near the non-specific background signal
- half time of the maximum activity (T1/2) ([1]; left kidney): 6.5 min
- time to maximum activity (Tmax) ([1]; left kidney): 1.5 min
- time from injection by which mostly excreted via the kidneys and bladder ([1]; ear vein injection, whole body gamma camera scan for 30 min, 81 keV): ≤ 30 min
- half time of the maximum activity (T1/2) ([1]; right kidney): 7.5 min
- time to maximum activity (Tmax) ([1]; right kidney): 1.75 min

Substance: ^99mTc-DTPA-mono(3-amido-2,4,6-triiodobenzoic acid)
- radioactivity in the kidneys ([2]; 30 min after injection): decrease to a level near the non-specific background signal
- time to achieve maximum activity (Tmax) ([2]; left kidney): 1 min
- time to eliminate half of the maximum activity (T1/2) ([2]; left kidney): 5 min
- time from injection by which mostly excreted via the kidneys and bladder ([2]; ear vein injection, whole body gamma camera scan for 30 min, 140 keV): ≤ 30 min
- time to achieve maximum activity (Tmax) ([2]; right kidney): 1 min
- time to eliminate half of the maximum activity (T1/2) ([2]; right kidney): 5.5 min
